Measured values as given in ChEMBL document CHEMBL1938271, “Dimeric ent-kaurane diterpenoids from Isodon excisus” (J Nat Prod, 2011).

System: RAW264.7
Test: Antiinflammatory activity in mouse RAW264.7 cells assessed as inhibition of LPS-stimulated nitric oxide production
Format: functional, cell-based

SMILES	IC50
CC(=O)O[C@H]1C[C@H]2C[C@@]3(C[C@H](O)[C@@H]4C(C)(C)[C@@H](OC(C)=O)C[C@H](O)[C@@]4(C)[C@H]13)C(=O)[C@]2(O)CC[C@@]1(O)C(=O)[C@]23C[C@@H]1C[C@H](O)[C@H]2[C@]1(C)[C@@H](OC(C)=O)C[C@H](OC(C)=O)C(C)(C)[C@H]1[C@@H](O)C3 (relative stereo)	> 50 µM
CC(=O)O[C@H]1C[C@H]2C[C@@]3(CC(=O)[C@@H]4C(C)(C)[C@@H](OC(C)=O)C[C@H](O)[C@@]4(C)[C@H]13)C(=O)O[C@]1(CCC2=O)C(=O)[C@]23C[C@@H]1C[C@H](OC(C)=O)[C@H]2[C@@]1(C)[C@H]([C@@H](O)C3)C(C)(C)[C@@H](OC(C)=O)C[C@@H]1O (relative stereo)	> 50 µM
CC(=O)O[C@H]1C[C@H]2C[C@@]3(C[C@H](O)[C@@H]4C(C)(C)[C@@H](OC(C)=O)C[C@H](O)[C@@]4(C)[C@H]13)C(=O)[C@]21CCC2=C(O1)[C@]13C[C@@H]2C[C@H](OC(C)=O)[C@H]1[C@@]1(C)[C@H]([C@@H](O)C3)C(C)(C)[C@@H](OC(C)=O)C[C@@H]1O (relative stereo)	> 50 µM
N=C(N)NN [PIMAGEDINE]	27.5 µM
CC(=O)O[C@H]1C[C@H]2C[C@@]3(C[C@H](O)[C@@H]4C(C)(C)[C@@H](OC(C)=O)C[C@H](O)[C@@]4(C)[C@H]13)C(=O)O[C@]1(CCC2=O)C(=O)[C@]23C[C@@H]1C[C@H](OC(C)=O)[C@H]2[C@@]1(C)[C@H]([C@@H](O)C3)C(C)(C)[C@@H](OC(C)=O)C[C@@H]1O (relative stereo)	> 50 µM
CC(=O)O[C@H]1C[C@H]2C[C@@]3(CC(=O)[C@@H]4C(C)(C)[C@@H](OC(C)=O)C[C@H](O)[C@@]4(C)[C@H]13)C(=O)[C@]21CCC(=O)[C@H]2C[C@H](OC(C)=O)[C@@H]3[C@](C2)(C[C@H](O)[C@@H]2C(C)(C)[C@@H](OC(C)=O)C[C@H](O)[C@]23C)C(=O)O1 (relative stereo)	> 50 µM
